Experimental data reported in PubChem BioAssay (NCI).
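Grown in 96-well plates, cells were treated for 48 hours with each compound at five concentrations. Insufficient inhibition: endpoint recorded as highest concentration tested. GI50 = concentration required for 50% inhibition of growth. TGI: total growth inhibition.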

What was measured:
Assay in all cases: inhibition of tumour cell growth, NCI panel, 48 h
786-0 renal = tested on: 786-0 renal
A498 renal = tested on: A498 renal
A549 NSCLC = tested on: A549 NSCLC
ACHN renal = tested on: ACHN renal
BT-549 breast = tested on: BT-549 breast
CAKI-1 renal = tested on: CAKI-1 renal
CCRF-CEM leukemia = tested on: CCRF-CEM leukemia
COLO 205 colon = tested on: COLO 205 colon
DU-145 prostate = tested on: DU-145 prostate
EKVX NSCLC = tested on: EKVX NSCLC
HCC-2998 colon = tested on: HCC-2998 colon
HCT-116 colon = tested on: HCT-116 colon
HCT-15 colon = tested on: HCT-15 colon
HL-60(TB) leukemia = tested on: HL-60(TB) leukemia
HOP-62 NSCLC = tested on: HOP-62 NSCLC
HOP-92 NSCLC = tested on: HOP-92 NSCLC
HS 578T breast = tested on: HS 578T breast
HT29 colon = tested on: HT29 colon
IGROV1 ovarian = tested on: IGROV1 ovarian
K-562 leukemia = tested on: K-562 leukemia
KM12 colon = tested on: KM12 colon
LOX IMVI melanoma = tested on: LOX IMVI melanoma
M14 melanoma = tested on: M14 melanoma
MALME-3M melanoma = tested on: MALME-3M melanoma
MCF7 breast = tested on: MCF7 breast
MDA-MB-231 breast = tested on: MDA-MB-231 breast
MDA-MB-435 = tested on: MDA-MB-435
MOLT-4 leukemia = tested on: MOLT-4 leukemia
NCI-H226 lung = tested on: NCI-H226 lung
NCI-H23 lung = tested on: NCI-H23 lung
NCI-H460 lung = tested on: NCI-H460 lung
NCI-H522 lung = tested on: NCI-H522 lung
NCI/ADR-RES ovarian = tested on: NCI/ADR-RES ovarian
OVCAR-3 ovarian = tested on: OVCAR-3 ovarian
OVCAR-4 ovarian = tested on: OVCAR-4 ovarian
OVCAR-5 ovarian = tested on: OVCAR-5 ovarian
OVCAR-8 ovarian = tested on: OVCAR-8 ovarian
PC-3 prostate = tested on: PC-3 prostate
RPMI-8226 leukemia = tested on: RPMI-8226 leukemia
RXF 393 renal = tested on: RXF 393 renal
SF-268 CNS = tested on: SF-268 CNS
SF-295 CNS = tested on: SF-295 CNS
SF-539 CNS = tested on: SF-539 CNS
SK-MEL-2 melanoma = tested on: SK-MEL-2 melanoma
SK-MEL-28 melanoma = tested on: SK-MEL-28 melanoma
SK-MEL-5 melanoma = tested on: SK-MEL-5 melanoma
SK-OV-3 ovarian = tested on: SK-OV-3 ovarian
SN12C renal = tested on: SN12C renal
SNB-19 CNS = tested on: SNB-19 CNS
SNB-75 CNS = tested on: SNB-75 CNS
SR leukemia = tested on: SR leukemia
SW-620 colon = tested on: SW-620 colon
T-47D breast = tested on: T-47D breast
TK-10 renal = tested on: TK-10 renal
U251 CNS = tested on: U251 CNS
UACC-257 melanoma = tested on: UACC-257 melanoma
UACC-62 melanoma = tested on: UACC-62 melanoma
UO-31 renal = tested on: UO-31 renal

## O=C(NCCCO)c1cc(Cl)ccc1O
786-0 renal
  GI50: 3.14 µM
  TGI: 11.8 µM
A498 renal
  GI50: 4.43 µM
  TGI: 12.7 µM
A549 NSCLC
  GI50: 3.24 µM
  TGI: 14 µM
ACHN renal
  GI50: 3.73 µM
  TGI: 13.2 µM
BT-549 breast
  GI50: 3.27 µM
  TGI: 12.7 µM
CAKI-1 renal
  GI50: 6.11 µM
  TGI: 24.6 µM
CCRF-CEM leukemia
  GI50: 0.728 µM
  TGI: 17.3 µM
COLO 205 colon
  GI50: 1.95 µM
  TGI: 5.85 µM
DU-145 prostate
  GI50: 4.41 µM
  TGI: 16.1 µM
EKVX NSCLC
  GI50: 2 µM
  TGI: 18.1 µM
HCC-2998 colon
  GI50: 3.1 µM
  TGI: 14.3 µM
HCT-116 colon
  GI50: 1.75 µM
  TGI: 10.5 µM
HCT-15 colon
  GI50: 7.02 µM
  TGI: 21.6 µM
HL-60(TB) leukemia
  GI50: 2.22 µM
  TGI: 6.35 µM
HOP-62 NSCLC
  GI50: 3.86 µM
  TGI: 13.4 µM
HOP-92 NSCLC
  GI50: 0.468 µM
  TGI: 3.37 µM
HS 578T breast
  GI50: 3.98 µM
  TGI: 21.4 µM
HT29 colon
  GI50: 2.16 µM
  TGI: 10.8 µM
IGROV1 ovarian
  GI50: 3.94 µM
  TGI: 17 µM
K-562 leukemia
  GI50: 0.901 µM
  TGI: 18.4 µM
KM12 colon
  GI50: 2.43 µM
  TGI: 12.9 µM
LOX IMVI melanoma
  GI50: 2.5 µM
  TGI: 11.5 µM
M14 melanoma
  GI50: 3.85 µM
  TGI: 15.7 µM
MALME-3M melanoma
  GI50: 1.85 µM
  TGI: 8.33 µM
MCF7 breast
  GI50: 2.64 µM
  TGI: 11.9 µM
MDA-MB-231 breast
  GI50: 3.64 µM
  TGI: 12.8 µM
MDA-MB-435
  GI50: 2.68 µM
  TGI: 12.1 µM
MOLT-4 leukemia
  GI50: 3.22 µM
  TGI: 15.1 µM
NCI-H226 lung
  GI50: 3.27 µM
  TGI: 13.4 µM
NCI-H23 lung
  GI50: 2.02 µM
  TGI: 8.3 µM
NCI-H460 lung
  GI50: 2.78 µM
  TGI: 11.1 µM
NCI-H522 lung
  GI50: 1.12 µM
  TGI: 4.77 µM
NCI/ADR-RES ovarian
  GI50: 9.31 µM
  TGI: 27.9 µM
OVCAR-3 ovarian
  GI50: 1.6 µM
  TGI: 9.11 µM
OVCAR-4 ovarian
  GI50: 2.54 µM
  TGI: 12.4 µM
OVCAR-5 ovarian
  GI50: 4.4 µM
  TGI: 19.9 µM
OVCAR-8 ovarian
  GI50: 2.38 µM
  TGI: 13 µM
PC-3 prostate
  GI50: 2.06 µM
  TGI: 10.2 µM
RPMI-8226 leukemia
  GI50: 0.704 µM
  TGI: 2.68 µM
RXF 393 renal
  GI50: 3.94 µM
  TGI: 12.9 µM
SF-268 CNS
  GI50: 6.52 µM
  TGI: 20.2 µM
SF-295 CNS
  GI50: 1.36 µM
  TGI: 6.01 µM
SF-539 CNS
  GI50: 4.85 µM
  TGI: 17.5 µM
SK-MEL-2 melanoma
  GI50: 2.82 µM
  TGI: 6.54 µM
SK-MEL-28 melanoma
  GI50: 4.45 µM
  TGI: 17.3 µM
SK-MEL-5 melanoma
  GI50: 1.94 µM
  TGI: 4.33 µM
SK-OV-3 ovarian
  GI50: 3.31 µM
  TGI: 12.3 µM
SN12C renal
  GI50: 1.89 µM
  TGI: 11.7 µM
SNB-19 CNS
  GI50: 2.26 µM
  TGI: 17.6 µM
SNB-75 CNS
  GI50: 2.44 µM
  TGI: 15.1 µM
SR leukemia
  GI50: 3.24 µM
  TGI: 18.2 µM
SW-620 colon
  GI50: 2.94 µM
  TGI: 14.3 µM
T-47D breast
  GI50: 1.67 µM
  TGI: 18 µM
TK-10 renal
  GI50: 4.26 µM
  TGI: 15.1 µM
U251 CNS
  GI50: 1.11 µM
  TGI: 12.1 µM
UACC-257 melanoma
  GI50: 2.23 µM
  TGI: 7.54 µM
UACC-62 melanoma
  GI50: 3.09 µM
  TGI: 15.8 µM
UO-31 renal
  GI50: 2.98 µM
  TGI: 11.3 µM

## COc1cc(NCCCN=C(N)NC(N)=NC(C)C)c2ncccc2c1
786-0 renal
  GI50: 50.7 µM
  TGI: > 100 µM
A498 renal
  GI50: 36.6 µM
  TGI: > 88.8 µM
A549 NSCLC
  GI50: 56.7 µM
  TGI: > 100 µM
ACHN renal
  GI50: > 82.8 µM
  TGI: > 100 µM
BT-549 breast
  GI50: 10 µM
  TGI: 22.8 µM
CAKI-1 renal
  GI50: > 100 µM
  TGI: > 100 µM
CCRF-CEM leukemia
  GI50: 7.61 µM
  TGI: 45.7 µM
COLO 205 colon
  GI50: 0.195 µM
  TGI: 1.92 µM
DU-145 prostate
  GI50: 33.9 µM
  TGI: > 100 µM
EKVX NSCLC
  GI50: 4.73 µM
  TGI: 22 µM
HCC-2998 colon
  GI50: 3.29 µM
  TGI: 22.1 µM
HCT-116 colon
  GI50: 3.31 µM
  TGI: 30.3 µM
HCT-15 colon
  GI50: > 100 µM
  TGI: > 100 µM
HL-60(TB) leukemia
  GI50: 10.8 µM
  TGI: 31.8 µM
HOP-62 NSCLC
  GI50: 35.2 µM
  TGI: > 84.8 µM
HOP-92 NSCLC
  GI50: 2.54 µM
  TGI: 26.5 µM
HS 578T breast
  GI50: 14 µM
  TGI: 46.1 µM
HT29 colon
  GI50: 6.38 µM
  TGI: > 100 µM
IGROV1 ovarian
  GI50: 0.467 µM
  TGI: 3.77 µM
K-562 leukemia
  GI50: 7.56 µM
  TGI: > 95.1 µM
KM12 colon
  GI50: 0.633 µM
  TGI: 11.2 µM
LOX IMVI melanoma
  GI50: 11.8 µM
  TGI: 42.9 µM
M14 melanoma
  GI50: 27.4 µM
  TGI: > 83.1 µM
MALME-3M melanoma
  GI50: 0.813 µM
  TGI: 4.1 µM
MCF7 breast
  TGI: 0.0718 µM
MDA-MB-231 breast
  GI50: 1.96 µM
  TGI: 14.3 µM
MDA-MB-435
  GI50: 17.7 µM
  TGI: 35 µM
MOLT-4 leukemia
  GI50: 6.62 µM
  TGI: > 47.5 µM
NCI-H226 lung
  GI50: 42.3 µM
  TGI: > 100 µM
NCI-H23 lung
  GI50: 3.02 µM
  TGI: 29.6 µM
NCI-H460 lung
  GI50: 14.6 µM
  TGI: > 79.5 µM
NCI-H522 lung
  GI50: 2.72 µM
  TGI: 9.61 µM
NCI/ADR-RES ovarian
  GI50: > 100 µM
  TGI: > 100 µM
OVCAR-3 ovarian
  GI50: 0.112 µM
  TGI: 0.876 µM
OVCAR-4 ovarian
  GI50: 0.0588 µM
  TGI: 1.64 µM
OVCAR-5 ovarian
  GI50: 12.8 µM
  TGI: 43.3 µM
OVCAR-8 ovarian
  GI50: 23.5 µM
  TGI: > 87.1 µM
PC-3 prostate
  GI50: 6 µM
  TGI: 35.5 µM
RPMI-8226 leukemia
  GI50: 6.55 µM
  TGI: 26.2 µM
RXF 393 renal
  GI50: 22.8 µM
  TGI: > 91.2 µM
SF-268 CNS
  GI50: 4.98 µM
  TGI: > 57.5 µM
SF-295 CNS
  GI50: 79.3 µM
  TGI: > 100 µM
SF-539 CNS
  GI50: 5.08 µM
  TGI: 30 µM
SK-MEL-2 melanoma
  GI50: 2.68 µM
  TGI: 10.1 µM
SK-MEL-28 melanoma
  GI50: 13.6 µM
  TGI: 35.2 µM
SK-MEL-5 melanoma
  GI50: 2.17 µM
  TGI: 6.38 µM
SK-OV-3 ovarian
  GI50: > 74.8 µM
  TGI: > 100 µM
SN12C renal
  GI50: 3.51 µM
  TGI: 27.2 µM
SNB-19 CNS
  GI50: 11 µM
  TGI: 64.4 µM
SNB-75 CNS
  GI50: 4.81 µM
  TGI: 28.5 µM
SR leukemia
  GI50: 7.71 µM
  TGI: 45.8 µM
SW-620 colon
  GI50: 11.6 µM
  TGI: > 63.5 µM
T-47D breast
  GI50: 1.58 µM
TK-10 renal
  GI50: 15.7 µM
  TGI: 46.1 µM
U251 CNS
  GI50: 6.41 µM
  TGI: > 45.1 µM
UACC-257 melanoma
  GI50: 4.31 µM
  TGI: 16.5 µM
UACC-62 melanoma
  GI50: 12.2 µM
  TGI: 33 µM
UO-31 renal
  GI50: > 97.1 µM
  TGI: > 100 µM
